Source: patent US20130095605A1, “LEAVING SUBSTITUENT-CONTAINING COMPOUND, ORGANIC SEMICONDUCTOR MATERIAL FORMED THEREFROM, ORGANIC ELECTRONIC DEVICE, ORGANIC THIN-FILM TRANSISTOR AND DISPLAY DEVICE USING THE ORGANIC SEMICONDUCTOR MATERIAL, METHOD FOR PRODUCING FILM-LIKE PRODUCT, PI-ELECTRON CONJUGATED COMPOUND AND METHOD FOR …” (RICOH COMPANY, LTD., priority 2010, published 2013)

Assays:
[1] = Evaluation of dissolvability (saturated solution in organic solvent); type: physicochemical; conditions: reflux 10 min, cooled to room temperature, left 16 hours, filtrated
Description: Each of the compounds obtained in Examples 1, 3, 5, 6, 7, 8, 9, 10, 11 and 12 and the corresponding specific compounds (24) to (33) was added to toluene, THF, anisole or chloroform (each: […]) until insoluble matter was found. The resultant mixture was stirred for 10 min under reflux of the solvent and cooled to room temperature, followed by stirring for 1 hour. After the mixture had been left to stand still for 16 hours, the supernatant was filtrated with a 0.2 μm PTFE filter to obtain a saturated solution. The obtained solution was dried under reduced pressure to calculate the dissolvability of the compound to each solvent.
The evaluation criteria in Table 1 are as follows.
A: 0.5% by mass≦Dissolvability B: 0.1% by mass≦Dissolvability<0.5% by mass C: 0.005% by mass≦Dissolvability<0.1% by mass D: Dissolvability<0.005% by mass

[2] = Solubility of annealed thin film in solvents; type: physicochemical; conditions: chloroform, THF, toluene, etc. at 25° C.; film after annealing 30 min at 150° C.
Description: Each (5 mg) of Ex. 1 compound and Ex. 2 compound synthesized in Synthesis Examples 1 and 2 was dissolved in THF, so that the concentration of the compound became 0.1% by mass, and the mixture was filtrated using a 0.2 μm-filter to prepare a solution. Onto a N-type silicon substrate having a 300 nm-thick thermally-oxidized film, which had been soaked in concentrated sulfuric acid for 24 hours, 100 μL of the prepared solution was added dropwise with a pipette, and a […] liquid droplet of the prepared solution was jetted 50 times using an inkjet apparatus (head; product of Ricoh Printing Systems, Ltd.). The thus-treated substrate was covered with a petri dish and left to stand still until the solvent was evaporated to thereby form a thin film. […] Next, the thin film was subjected to annealing for 30 min at 150° C. in an argon atmosphere.
After annealing, a plurality of colored domains were observed under the polarization microscope, and it was confirmed that a smooth and crystalline film was obtained. These films were obtained because each of Ex. 1 compound and Ex. 2 compound serving as precursors lost an ester group (i.e., a soluble group) and converted to Compound 24 having stronger intermolecular interaction, and became crystalline in the film. The thin film was insoluble in chloroform, THF, toluene, etc. at 25° C.

| SMILES | Dissolvability, solvent Anisole [1] | Dissolvability, solvent THF [1] | Dissolvability, solvent Toluene [1] | solubility of thin film [2] |
| --- | --- | --- | --- | --- |
| c1ccc2cc(-c3cc4sc(-c5ccc6ccccc6c5)cc4s3)ccc2c1 [Compound (24)] | D (Dissolvability<0.005% by mass) | D (Dissolvability<0.005% by mass) | D (Dissolvability<0.005% by mass) | insoluble |
| c1ccc2c(c1)ccc1c3cc4sc5c6ccccc6ccc5c4cc3sc21 [Compound (25)] | D (Dissolvability<0.005% by mass) | D (Dissolvability<0.005% by mass) | D (Dissolvability<0.005% by mass) | – |
| c1ccc2c(c1)ccc1cc3ccc4c5c(ccc6ccccc65)cc5ccc(c12)c3c54 [Compound (26)] | D (Dissolvability<0.005% by mass) | D (Dissolvability<0.005% by mass) | D (Dissolvability<0.005% by mass) | – |
| c1ccc2c(c1)ccc1c3cc4ccc5c6ccccc6ccc5c4cc3ccc21 [Compound (27)] | D (Dissolvability<0.005% by mass) | D (Dissolvability<0.005% by mass) | D (Dissolvability<0.005% by mass) | – |
| c1cc2ccc3cc4ccc5cc6c(ccc7cc8ccc9cccc%10ccc(c76)c8c9%10)cc5c4c4ccc(c1)c2c34 [Compound (28)] | D (Dissolvability<0.005% by mass) | D (Dissolvability<0.005% by mass) | D (Dissolvability<0.005% by mass) | – |
| c1ccc2cc3c(ccc4c3ccc3c4ccc4c5ccc6cc7ccccc7cc6c5ccc43)cc2c1 [Compound (29)] | D (Dissolvability<0.005% by mass) | D (Dissolvability<0.005% by mass) | D (Dissolvability<0.005% by mass) | – |
| C(#Cc1cc2sc3cc4c(cc3c2s1)sc1cc(C#Cc2ccc3ccccc3c2)sc14)c1ccc2ccccc2c1 [Compound (30)] | D (Dissolvability<0.005% by mass) | D (Dissolvability<0.005% by mass) | D (Dissolvability<0.005% by mass) | – |
| C(#Cc1ccc2c(ccc3cc(C#Cc4ccccc4)ccc32)c1)c1ccccc1 [Compound (31)] | C (0.005% by mass≦Dissolvability<0.1% by mass) | B (0.1% by mass≦Dissolvability<0.5% by mass) | C (0.005% by mass≦Dissolvability<0.1% by mass) | – |
| COC1CC=Cc2ccc(-c3cc4sc(-c5ccc6c(c5)C(OC)CC=C6)cc4s3)cc21 (stereo not shown) [Ex. 3 compound] | B (0.1% by mass≦Dissolvability<0.5% by mass) | A (0.5% by mass≦Dissolvability) | A (0.5% by mass≦Dissolvability) | – |
| CCCCC(CC)C(=O)OC1Cc2ccccc2-c2c1cc1ccc3c4c(cc5ccc2c1c53)C(OC(=O)C(CC)CCCC)Cc1ccccc1-4 (stereo not shown) [Ex. 7 compound] | B (0.1% by mass≦Dissolvability<0.5% by mass) | A (0.5% by mass≦Dissolvability) | B (0.1% by mass≦Dissolvability<0.5% by mass) | – |
| CC(C)(C)C(=O)OC1Cc2cc3c(cc2-c2ccc4ccccc4c21)CC(OC(=O)C(C)(C)C)c1c-3ccc2ccccc12 (stereo not shown) [Ex. 8 compound] | A (0.5% by mass≦Dissolvability) | A (0.5% by mass≦Dissolvability) | A (0.5% by mass≦Dissolvability) | – |
| CCCCCC(=O)OC1CC=Cc2cc3c(ccc4c3ccc3c4ccc4c5ccc6cc7c(cc6c5ccc43)C=CCC7OC(=O)CCCCC)cc21 (stereo not shown) [Ex. 10 compound] | B (0.1% by mass≦Dissolvability<0.5% by mass) | A (0.5% by mass≦Dissolvability) | B (0.1% by mass≦Dissolvability<0.5% by mass) | – |
| CCCCCC(=O)OC1Cc2cc(C#Cc3ccccc3)ccc2-c2ccc(C#Cc3ccccc3)cc21 (stereo not shown) [Ex. 12 compound] | A (0.5% by mass≦Dissolvability) | A (0.5% by mass≦Dissolvability) | A (0.5% by mass≦Dissolvability) | – |
